biological target: aspartyl proteases, in particular, beta-secretase; test: Ki of the compounds listed in Tables 1 and 2 (no method described); assay type: biochemical; conditions: not given

Structure (SMILES) | Ki [nM]
Cc1ccc(S(=O)(=O)N(CC(C)C)C(CNCCNC(=O)CCc2ccccc2)C(=O)O)cc1 [Compound No. 206, (2R,2S)-2-[N-isobutyl-N-(4-methylbenzenesulfonyl)]-3-[2′-(N′-dihydrocinnamoyl)ethylamino]-propionic Acid] | > 300
CC(C)CN([C@@H](CCCCNC(=O)OCC1c2ccccc2-c2ccccc21)C(=O)O)S(=O)(=O)c1ccc(C(C)(C)C)cc1 [Compound No. 10, Nα-isobutyl-Nα-(4-tert-butylbenzenesulfonyl)-Nε-(9-fluorenylmethoxycarbonyl)-L-lysine] | 257

same assay, conditions: Table 1, compounds of formula Ia, W is -(CH2)n-

Ki [nM] | Structure (SMILES)
36000 | O=C(N[C@@H](CCCCNS(=O)(=O)c1ccccc1Br)C(=O)O)OCC1c2ccccc2-c2ccccc21 [Compound No. 24, Nε-(2-bromobenzenesulfonyl)-Nα-(9-fluorenylmcthoxycarbonyl)-L-lysine]
75000 | O=C(N[C@@H](CNS(=O)(=O)c1ccc(Br)cc1)C(=O)O)OCC1c2ccccc2-c2ccccc21 [Compound No. 18, (S)-2-(9-fluorenylmethoxycarbonylamino)-3-(4-bromobenzenesulfonylamino)-propanoic Acid]
49000 | O=C(N[C@@H](CCNS(=O)(=O)c1ccc(Br)cc1)C(=O)O)OCC1c2ccccc2-c2ccccc21 [Compound No. 14, (S)-2-(9-fluorenylmethoxycarbonylamino)-4-(4-bromobenzenesulfonylamino)-butanoic Acid]
19200 | O=C(N[C@@H](CCCCNS(=O)(=O)c1ccc(I)cc1)C(=O)O)OCC1c2ccccc2-c2ccccc21 [Compound No. 64, Nε-(4-iodobenzenesulfonyl)-Nα-(9-fluorenylmethoxycarbonyl)-L-lysine]
105 | Cc1ccc(S(=O)(=O)N(CC(C)C)C(CCCCNC(=O)C2c3ccccc3-c3ccccc32)C(=O)O)cc1 (centres unmarked) [compound 83]
3160 | COc1ccc(S(=O)(=O)N[C@@H](CCCCNC(=O)OCC2c3ccccc3-c3ccccc32)C(=O)O)cc1 [Compound No. 104, Nα-(4-methoxylbenzenesulfonyl)-Nε-(9-fluorenylmethoxycarbonyl)-L-lysine]
> 100 | Cc1cc(C)c(S(=O)(=O)N(CC(C)C)[C@@H](CCCCNC(=O)OCC2c3ccccc3-c3ccccc32)C(=O)O)c(C)c1 [Compound No. 42, Nα-isobutyl-Nα-(2,4,6-trimethylbenzenesulfonyl)-Nε-(9-fluorenylmethoxycarbonyl)-L-lysine]
3970 | O=C(NCCCC[C@H](NS(=O)(=O)c1ccccc1[N+](=O)[O-])C(=O)O)OCC1c2ccccc2-c2ccccc21 [Compound No. 107, Nα-(2-nitrobenzenesulfonyl)-Nε-(9-fluorenylmethoxycarbonyl)-L-lysine]
10100 | Cc1ccc(S(=O)(=O)NCCC[C@H](NC(=O)OCC2c3ccccc3-c3ccccc32)C(=O)O)cc1 [Compound No. 149, Nδ-(4-methylbenzenesulfonyl)-Nα-(9-fluorenylmethoxycarbonyl)-L-ornithine]
44800 | O=C(NCCCC[C@H](NC(=O)OCC1c2ccccc2-c2ccccc21)C(=O)O)OCC1c2ccccc2-c2ccccc21 [Compound No. 71, Nα,Nε-di-(9-fluorenylmethoxycarbonyl)-L-lysine]
4800 | O=C(N[C@@H](CCCCNS(=O)(=O)c1ccc(Cl)cc1)C(=O)O)OCC1c2ccccc2-c2ccccc21 [Compound No. 53, Nε-(4-chlorobenzenesulfonyl)-Nα-(9-fluorenylmethoxycarbonyl)-L-lysine]
1900 | O=C(NCCCC[C@H](NS(=O)(=O)c1ccc(Br)cc1)C(=O)O)OCC1c2ccccc2-c2ccccc21 [Compound No. 66, Nα-(4-bromobenzenesulfonyl)-Nε-(9-fluorenylmethoxycarbonyl)-L-lysine]
5 | Cc1ccc(S(=O)(=O)N(CC(C)C)C(CCCCNC(=O)OCC2c3ccccc3-c3ccccc32)C(=O)O)cc1 (racemic) [Compound No. 2, Nα-isobutyl-Nα-(4-methylbenzenesulfonyl)-Nε-(9-fluorenylmethoxycarbonyl)-DL-lysine]
4.3 | Cc1ccc(S(=O)(=O)N(CC(C)C)[C@@H](CCCCNC(=O)OCC2c3ccccc3-c3ccccc32)C(=O)O)cc1 [Compound No. 67, Nα-isobutyl-Nα-(4-methylbenzenesulfonyl)-Nε-(9-fluorenylmethoxycarbonyl)-L-lysine]
22000 | O=C(N[C@@H](CCCCNS(=O)(=O)c1cccc(C(F)(F)F)c1)C(=O)O)OCC1c2ccccc2-c2ccccc21 [Compound No. 34, Nε-(3-trifluoromethylbenzenesulfonyl)-Nα-(9-fluorenylmethoxycarbonyl)-L-lysine]
> 300 | CC(C)CN([C@@H](CCCCNC(=O)CCCc1ccccc1)C(=O)O)S(=O)(=O)c1ccc(N)cc1 [Compound No. 121, Nα-isobutyl-Nα-(4-aminobenzenesulfonyl)-Nε-(4-phenylbutanoyl)-L-lysine]
2000 | CC(C)CN(CCCC[C@H](NC(=O)OCC1c2ccccc2-c2ccccc21)C(=O)O)S(=O)(=O)c1ccc(Br)cc1 [Compound No. 21, Nα-(9-fluorenylmethoxycarbonyl)-Nε-isobutyl-Nε-(4-bromobenzenesulfonyl)-L-lysine]
3.9 | Cc1ccc(S(=O)(=O)N(CC2CC2)[C@@H](CCCCNC(=O)OCC2c3ccccc3-c3ccccc32)C(=O)O)cc1 [Compound No. 43, Nα-cyclopropylmethyl-Nα-(4-methylbenzenesulfonyl)-Nε-(9-fluorenylmethoxycarbonyl)-L-lysine]
15000 | O=C(N[C@@H](CCCCNS(=O)(=O)c1cccc2cccnc12)C(=O)O)OCC1c2ccccc2-c2ccccc21 [Compound No. 28, Nε-(8-quinolinesulfonyl)-Nα-(9-fluorenylmethoxycarbonyl)-L-lysine]

Further lines, the compound ahead of its results:

Structure (SMILES) | Ki [nM]
COc1ccccc1/C=C/C(=O)NCCCC[C@@H](C(=O)O)N(CC(C)C)S(=O)(=O)c1ccc([N+](=O)[O-])cc1 [Compound No. 161, Nα-isobutyl-Nα-(4-nitrobenzenesulfonyl)-Nε-(trans-2-methoxycinnamoyl)-L-lysine] | > 300
COc1cccc(C=CC(=O)NCCCC[C@@H](C(=O)O)N(CC(C)C)S(=O)(=O)c2ccc([N+](=O)[O-])cc2)c1OC [compound 110, Nα-isobutyl-Nα-(4-nitrobenzenesulfonyl)-Nε-(2,3-dimethoxycinnamoyl)-L-lysine] | > 300
CC(C)CN([C@@H](CCCCNC(=O)C=Cc1ccc([N+](=O)[O-])cc1)C(=O)O)S(=O)(=O)c1ccc([N+](=O)[O-])cc1 [Compound No. 111, Nα-isobutyl-Nα-(4-nitrobenzenesulfonyl)-Nε-(4-nitrocinnamoyl)-L-lysine] | 34.4
Cc1ccc(S(=O)(=O)N(CC(C)C)[C@@H](CCCCNC(=O)CCc2ccccc2)C(=O)O)cc1 [compound 91] | 8
Cc1ccc(S(=O)(=O)N(CC(C)C)[C@@H](CCCCNC(=O)CCc2ccc(O)cc2)C(=O)O)cc1 [Compound No. 126, Nα-isobutyl-Nα-(4-methylbenzenesulfonyl)-Nε-(4-hydroxydihydrocinnamoyl)-L-lysine] | > 300
Cc1ccc(S(=O)(=O)N(CC(C)C)C(CCCCNC(=S)CCc2ccccc2)C(=O)O)cc1 (racemic) [Compound No. 153, Nα-isobutyl-Nα-(4-methylbenzenesulfonyl)-Nε-dihydrothiocinnamoyi-DL-lysine] | 151
Cc1ccc(S(=O)(=O)N(CC(C)C)[C@@H](CCCCNC(=O)C(c2ccccc2)c2ccccc2)C(=O)O)cc1 [compound 86] | 171
CC(C)CN([C@@H](CCCCNS(=O)(=O)c1ccc([N+](=O)[O-])cc1)C(=O)O)S(=O)(=O)c1ccc([N+](=O)[O-])cc1 [compound 116, Nα-isobutyl-Nα,Nε-di-(4-nitrobenzenesulfonyl)-L-lysine] | > 300
CC(C)CN([C@@H](CCCCNC(=O)CCc1c[nH]c2ccccc12)C(=O)O)S(=O)(=O)c1ccc([N+](=O)[O-])cc1 [Compound No. 95, Nα-isobutyl-Nα-(4-nitrobenzenesulfonyl)-Nε-(3-indolepropionyl)-L-lysine] | 33.4
Cc1ccc(S(=O)(=O)N(CC(C)C)C(CCCCNC(=O)OCC2c3ccccc3-c3ccccc32)C(=O)NO)cc1 [Compound No. 141, (2R,2S)-N-isobutyl-N-(4-methylbenzenesulfonylamino)-6-(9-fluorenylmethoxycarboxylamino)-1-hydroxylhexamide] | 245
CC(C)CN([C@@H](CCCCNC(=O)C=Cc1cccc([N+](=O)[O-])c1)C(=O)O)S(=O)(=O)c1ccc([N+](=O)[O-])cc1 [Compound No. 108, Nα-isobutyl-Nα-(4-nitrobenzenesulfonyl)-Nε-(3-nitrocinnamoyl)-L-lysine] | > 300
COc1cccc(CCC(=O)NCCCC[C@@H](C(=O)O)N(CC(C)C)S(=O)(=O)c2ccc(N)cc2)c1 [Compound No. 156, Nα-isobutyl-Nα-(4-aminobenzenesulfonyl)-Nε-(3-methoxydihydrocinnamoyl)-L-lysine] | 16.7
CC(C)CN([C@@H](CCCCNC(=O)CSc1ccccc1)C(=O)O)S(=O)(=O)c1ccc([N+](=O)[O-])cc1 [Compound No. 154, Nα-isobutyl-Nα-(4-Tnitrobenzenesulfonyl)-Nε-phenylthioacetyl-L-lysine] | 10.2
COc1cccc(C=CC(=O)NCCCC[C@@H](C(=O)O)N(CC(C)C)S(=O)(=O)c2ccc([N+](=O)[O-])cc2)c1 [Compound No. 162, Nα-isobutyl-Nα-(4-nitrobenzenesulfonyl)-Nε-(3-methoxycinnamoyl)-L-lysine] | > 300
COc1ccc(S(=O)(=O)N(CC(C)C)[C@@H](CCCCNC(=O)OCC2c3ccccc3-c3ccccc32)C(=O)O)cc1 [Compound No. 7] | 10.6
Cc1ccc(S(=O)(=O)N(CC(C)C)C(CCCCNC(=O)OCC2c3ccccc3-c3ccccc32)C(N)=O)cc1 [Compound No. 125, (2R,2S)-N-isobutyl-N-(4-methylbenzenesulfonylamino)-6-(9-fluorenylmethoxycarboxylamino)-1-hexanamide] | 107
Cc1ccc(S(=O)(=O)N(Cc2ccccc2)[C@@H](CCCCNC(=O)OCC2c3ccccc3-c3ccccc32)C(=O)O)cc1 [Compound No. 40, Nα-benzyl-Nα-(4-methylbenzenesulfonyl)-Nε-(9-fluorenylmethoxycarbonyl)-L-lysine] | 19.6

Reference: US20060079550A1, “Amino acid derivatives useful for the treatment of alzheimer's disease” (priority 2001, published 2006)
